According to patent US20080200403A1, “9A-Carbamoyl and Thiocarbamoyl Azalides with Anti-Inflammatory Activity” (GLAXOSMITHKLINE, priority 2005, published 2008):

Tests used:
Format in all cases: cell-based
IL-2 = assay: Inhibition of IL-2 production by stimulated human PBMC in vitro; settings: PHA stimulated, 3 days
Protocol: Heparinized peripheral blood was obtained from healthy donors, and peripheral blood mononuclear cells (PBMC) were isolated by Histopaque 1077 (Sigma, USA) density centrifugation on 400 g for 30 minutes. Collected PBMC were centrifuged in plasma on 400 g/10 min, resuspended and washed in RPMI 1640 (Institute of Immunology, Croatia) by centrifugation.
Peripheral blood mononuclear cells (PBMC), isolated as described above, were seeded in a 48-well plate at a concentration of 1×10^6 cells per well in the RPMI culture medium described above. Cells were stimulated with 10 μg/mL phytohaemagglutinin (PHA) (Sigma, USA) and incubated at 37° C., 5% CO2 in 90% humidity with tested compounds (10 and 50 μM) for 3 days. Cytokine concentrations were determined in supernatants by sandwich ELISA, using capture and detection antibodies (R&D, USA) according to the manufacturer's recommendations.
Inhibition (as percentage) was calculated using the following formula: % inhibition=(1−concentration of cytokines in sample/concentration of cytokines in positive control)×100. The positive control refers to stimulated samples, not treated with substances.

IL-8 = assay: Inhibition of IL-8 production by stimulated human peripheral blood leukocytes in vitro; settings: PBL
Procedure, shortened: (§1)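 Dextran-isolated human PBL (3-5×10^6 per well) in RPMI with 10% FCS were preincubated 2 h at 37 °C with compounds at 50 μM or 10 μM final, then stimulated overnight with 2 μg/mL LPS, 1 μg/mL PMA or 120 μg/mL zymosan. Supernatant cytokines by sandwich ELISA; % inhibition versus stimulated untreated control.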

[1] = tested on: human peripheral blood mononuclear cells (PBMC); assay: Human T-cell proliferation in vitro (3H-thymidine incorporation)
Procedure, shortened: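 Donor PBMC isolated on Histopaque, 5×10^4 cells/well cultured 3 days at 37 °C with PHA (2.5 μg/mL) or PMA (10 ng/mL) plus ionomycin (500 ng/mL), and compound at 50 μM or 10 μM. 3H-thymidine pulse during final 18 h; % inhibition versus stimulated untreated cpm.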

IL-1α = assay: Inhibition of IL-1 production by stimulated human peripheral blood leukocytes in vitro; settings: PBL
IL-6 = assay: Inhibition of IL-6 production by stimulated human peripheral blood leukocytes in vitro; settings: PBL
Procedure, shortened: as §1

TNF-α = assay: Inhibition of TNF-α production by stimulated human peripheral blood leukocytes in vitro; settings: PBL
Procedure, shortened: as §1

[2] = zymosan stimulated, compound 10 μM
[3] = zymosan stimulated, compound 50 μM

CCC1OC(=O)C(C)C(O)C(C)C(OC2OC(C)CC(N(C)C)C2O)C(C)(O)CC(C)CN(C(=S)NCc2ccccc2)C(C)C(O)C1(C)O (stereo not drawn) [Compound 1]
Percentage of inhibition of IL-2 production (IL-2; compound 10 μM): 61%
Percentage of inhibition of IL-2 production (IL-2; compound 50 μM): 95%
Percentage of inhibition of IL-8 production (IL-8; LPS stimulated, compound 10 μM): 40%
Percentage of inhibition of IL-8 production (IL-8; LPS stimulated, compound 50 μM): 0%
Percentage of inhibition of IL-8 production (IL-8; PMA stimulated, compound 10 μM): 4%
Percentage of inhibition of IL-8 production (IL-8; PMA stimulated, compound 50 μM): 0%
Percentage of inhibition of IL-8 production (IL-8; [2]): 12%
Percentage of inhibition of IL-8 production (IL-8; [3]): 79%
Percentage of inhibition of proliferation of stimulated PBMC ([1]; PHA stimulated, compound 10 μM): 21%
Percentage of inhibition of proliferation of stimulated PBMC ([1]; PHA stimulated, compound 50 μM): 95%
Percentage of inhibition of proliferation of stimulated PBMC ([1]; PMA + ionomycin stimulated, compound 10 μM): 10%
Percentage of inhibition of proliferation of stimulated PBMC ([1]; PMA + ionomycin stimulated, compound 50 μM): 52%
Percentage of inhibition of IL-1α production (IL-1α; LPS stimulated, compound 10 μM): 52%
Percentage of inhibition of IL-1α production (IL-1α; LPS stimulated, compound 50 μM): 78%
Percentage of inhibition of IL-1α production (IL-1α; PMA stimulated, compound 10 μM): 38%
Percentage of inhibition of IL-1α production (IL-1α; PMA stimulated, compound 50 μM): 47%
Percentage of inhibition of IL-1α production (IL-1α; [2]): 65%
Percentage of inhibition of IL-1α production (IL-1α; [3]): 57%
Percentage of inhibition of IL-6 production (IL-6; LPS stimulated, compound 10 μM): 4%
Percentage of inhibition of IL-6 production (IL-6; LPS stimulated, compound 50 μM): 22%
Percentage of inhibition of IL-6 production (IL-6; PMA stimulated, compound 10 μM): 22%
Percentage of inhibition of IL-6 production (IL-6; PMA stimulated, compound 50 μM): 21%
Percentage of inhibition of IL-6 production (IL-6; [2]): 23%
Percentage of inhibition of IL-6 production (IL-6; [3]): 59%
Percentage of inhibition of TNF-α production (TNF-α; LPS stimulated, compound 10 μM): 0%
Percentage of inhibition of TNF-α production (TNF-α; LPS stimulated, compound 50 μM): 33%
Percentage of inhibition of TNF-α production (TNF-α; PMA stimulated, compound 10 μM): 2%
Percentage of inhibition of TNF-α production (TNF-α; PMA stimulated, compound 50 μM): 37%
Percentage of inhibition of TNF-α production (TNF-α; [2]): 34%
Percentage of inhibition of TNF-α production (TNF-α; [3]): 72%
